Consider three compounds from patent publication US7332518B2, “Carboxamides as fungicides in agriculture” (Syngenta Crop Protection, Inc., priority 2001, dated 2008).

As a reminder, the melting point is the temperature, or range, at which the solid turns liquid. On to `Cn1cc(C(=O)NC=C=Cc2ccccc2-c2ccc(Br)cc2)c(C(F)(F)F)n1` [Compound 2.123, 1-Methyl-3-trifluoromethyl-1H-pyrazole-4-carboxylic acid (4′-bromobiphenyl-2-yl)propa-1,2-dienyl-amide], for which the melting point lay within 146 to 149 °C. The figure for `C#CCN(C(=O)c1cn(C)cc1C(F)(F)F)c1cccc2c1C(C)CC2(C)C` (stereo not drawn) [Compound 10.3, 1-methyl-4-trifluoromethyl-1H-pyrrole-3-carboxylic acid prop-2-ynyl-(1,1,3-trimethylindan-4-yl)amide] is 142 to 144 °C. `Cn1cc(C(=O)NCC#Cc2ccccc2-c2ccc(Br)cc2)c(C(F)(F)F)n1` [Compound 2.010, 1-Methyl-3-trifluoromethyl-1H-pyrazole-4-carboxylic acid (4′-bromobiphenyl-2-yl)prop-2-ynyl-amide] came in with a melting point of 171 to 172 °C.
